Laboratory results: US9980943B2, “Methods of treating muscular dystrophy” (BOARD OF REGENTS OF THE NEVADA SYSTEM OF HIGHER EDUCATION, …, priority 2013, dated 2018)

Legend:
Assay type in all cases: cell-based, mouse
[1] = system: α7 integrin (LacZ reporter in α7βgal+/− myoblasts); test: Myoblast α7+/LacZ integrin FDG assay (Burkin assay in myoblasts, 96-well); settings: for Burkin Assay in Myoblasts, signal relative to DMSO: α7+/LacZ myoblasts; for Burkin Assay in Myoblasts, signal relative to DMSO / Burkin Assay in Myoblasts, value relative to DMSO: 96-well; for Burkin Assay in Myoblasts, value relative to DMSO: SU9516 analogs, N=3-6
[2] = system: β-galactosidase in CMV-LacZ C2C12 myotubes; test: CMV-LacZ secondary screen in C2C12 myotubes (β-Gal stabilizing assay); settings: for CMV-LACZ in Myotubes, value relative to DMSO: SU9516 analogs, C2C12 CMV-LacZ, N=2; for CMV-LACZ in Myotubes, signal relative to DMSO: C2C12 CMV-LacZ myotubes, fold relative to DMSO
Method in brief: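 Dose-response runs at 0.5–40 μM (0.5, 1, 5, 10, 20, 40 μM; N=2 per point) used a clonal C2C12 line carrying CMV-LacZ. Cells were assayed as myoblasts or as differentiated myotubes, and β-galactosidase levels were read with the FDG fluorogenic substrate.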

[3] = system: β-galactosidase in CMV-LacZ C2C12 myoblasts; test: CMV-LacZ secondary screen in C2C12 myoblasts (β-Gal stabilizing assay); settings: for CMV-LACZ in Myoblasts, value relative to DMSO: SU9516 analogs, C2C12 CMV-LacZ, N=2; for CMV-LACZ in Myoblasts (β-galactosidase activity relative to DMSO): CMV-LacZ C2C12 myoblasts
Method in brief: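 First, C2C12 myoblasts were transfected with a linearized CMV-LACZ vector and clonal lines selected by FDG β-gal assay. Then cells were exposed to compounds at 0.5, 1, 5, 10, 20 and 40 μM in 96-well format, two replicates each, and β-gal measured.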

[4] = system: α7 integrin (LacZ reporter in α7+/LacZ myotubes); test: Myotube α7 integrin FDG assay (Burkin assay in myotubes, 96-well); settings: for Burkin Assay in Myotubes, value relative to DMSO: SU9516 analogs, 96-well, N=3-6
[5] = Mus musculus, Myoblast, 48 h, read-out: Burkin Assay in Myoblasts, value relative to DMSO

O=C1Nc2ccccc2/C1=C/c1c[nH]cn1 [MLS000327715-01]
fold induction at 0.5 µM [1, 5]: 1.38
fold induction at 1 µM [1, 5]: 1.09
fold induction at 5 µM [1, 5]: 1.15
fold induction at 10 µM [1, 5]: 1.03
fold induction at 20 µM [1, 5]: 0.902
fold induction at 40 µM [1, 5]: 0.578
CMV-LACZ in Myotubes, value relative to DMSO ([2]; 0.5 uM): 1.1762
CMV-LACZ in Myotubes, value relative to DMSO ([2]; 1 uM): 1.0562
CMV-LACZ in Myotubes, value relative to DMSO ([2]; 5 uM): 1.1289
CMV-LACZ in Myotubes, value relative to DMSO ([2]; 10 uM): 0.9983
CMV-LACZ in Myotubes, value relative to DMSO ([2]; 20 uM): 1.2200
CMV-LACZ in Myotubes, value relative to DMSO ([2]; 40 uM): 1.4871
CMV-LACZ in Myoblasts, value relative to DMSO ([3]; 0.5 uM): 1.2294
CMV-LACZ in Myoblasts, value relative to DMSO ([3]; 1 uM): 1.1731
CMV-LACZ in Myoblasts, value relative to DMSO ([3]; 5 uM): 0.9664
CMV-LACZ in Myoblasts, value relative to DMSO ([3]; 10 uM): 1.0060
CMV-LACZ in Myoblasts, value relative to DMSO ([3]; 20 uM): 1.3181
CMV-LACZ in Myoblasts, value relative to DMSO ([3]; 40 uM): 1.0648
Burkin Assay in Myotubes, value relative to DMSO ([4]; 0.5 uM): 0.8838
Burkin Assay in Myotubes, value relative to DMSO ([4]; 1 uM): 1.025
Burkin Assay in Myotubes, value relative to DMSO ([4]; 5 uM): 1.302
Burkin Assay in Myotubes, value relative to DMSO ([4]; 10 uM): 1.115
Burkin Assay in Myotubes, value relative to DMSO ([4]; 20 uM): 1.192
Burkin Assay in Myotubes, value relative to DMSO ([4]; 40 uM): 1.119

CC(C)(C)Nc1nc(-c2ccc3c(c2)CCN3C(=O)C2CC2)cs1 [MLS001216939-01]
Burkin Assay in Myoblasts, signal relative to DMSO ([1]; 0.5 uM): 1.123
Burkin Assay in Myoblasts, signal relative to DMSO ([1]; 1 uM): 1.2827
Burkin Assay in Myoblasts, signal relative to DMSO ([1]; 5 uM): 1.111
Burkin Assay in Myoblasts, signal relative to DMSO ([1]; 10 uM): 0.9828
Burkin Assay in Myoblasts, signal relative to DMSO ([1]; 20 uM): 0.8633
Burkin Assay in Myoblasts, signal relative to DMSO ([1]; 40 uM): 0.7865
CMV-LACZ in Myotubes, signal relative to DMSO ([2]; 0.5 uM): 1.0311
CMV-LACZ in Myotubes, signal relative to DMSO ([2]; 1 uM): 0.9748
CMV-LACZ in Myotubes, signal relative to DMSO ([2]; 5 uM): 1.1826
CMV-LACZ in Myotubes, signal relative to DMSO ([2]; 10 uM): 1.2568
CMV-LACZ in Myotubes, signal relative to DMSO ([2]; 20 uM): 1.1518
CMV-LACZ in Myotubes, signal relative to DMSO ([2]; 40 uM): 0.9659
CMV-LACZ in Myoblasts (β-galactosidase activity relative to DMSO) ([3]; 0.5 uM): 1.0991
CMV-LACZ in Myoblasts (β-galactosidase activity relative to DMSO) ([3]; 1 uM): 1.1134
CMV-LACZ in Myoblasts (β-galactosidase activity relative to DMSO) ([3]; 5 uM): 1.0913
CMV-LACZ in Myoblasts (β-galactosidase activity relative to DMSO) ([3]; 10 uM): 0.9452
CMV-LACZ in Myoblasts (β-galactosidase activity relative to DMSO) ([3]; 20 uM): 1.1863
CMV-LACZ in Myoblasts (β-galactosidase activity relative to DMSO) ([3]; 40 uM): 1.0644
Burkin Assay in Myotubes, α7 integrin LacZ reporter signal relative to DMSO ([4]; 0.5 uM): 1.193
Burkin Assay in Myotubes, α7 integrin LacZ reporter signal relative to DMSO ([4]; 1 uM): 1.185
Burkin Assay in Myotubes, α7 integrin LacZ reporter signal relative to DMSO ([4]; 5 uM): 1.07
Burkin Assay in Myotubes, α7 integrin LacZ reporter signal relative to DMSO ([4]; 10 uM): 1.06
Burkin Assay in Myotubes, α7 integrin LacZ reporter signal relative to DMSO ([4]; 20 uM): 0.8529
Burkin Assay in Myotubes, α7 integrin LacZ reporter signal relative to DMSO ([4]; 40 uM): 0.4743

CC1(C)Cc2ccccc2-c2nc3n(c(=O)c21)CCS3 [MLS000711491-01]
Burkin Assay in Myoblasts, signal relative to DMSO ([1]; 0.5 uM): 1.214
Burkin Assay in Myoblasts, signal relative to DMSO ([1]; 1 uM): 1.0159
Burkin Assay in Myoblasts, signal relative to DMSO ([1]; 5 uM): 1.02
Burkin Assay in Myoblasts, signal relative to DMSO ([1]; 10 uM): 1.024
Burkin Assay in Myoblasts, signal relative to DMSO ([1]; 20 uM): 0.7949
Burkin Assay in Myoblasts, signal relative to DMSO ([1]; 40 uM): 0.5793
CMV-LACZ in Myotubes, signal relative to DMSO ([2]; 0.5 uM): 0.9495
CMV-LACZ in Myotubes, signal relative to DMSO ([2]; 1 uM): 0.9095
CMV-LACZ in Myotubes, signal relative to DMSO ([2]; 5 uM): 0.9993
CMV-LACZ in Myotubes, signal relative to DMSO ([2]; 10 uM): 0.8645
CMV-LACZ in Myotubes, signal relative to DMSO ([2]; 20 uM): 1.1318
CMV-LACZ in Myotubes, signal relative to DMSO ([2]; 40 uM): 0.9929
CMV-LACZ in Myoblasts (β-galactosidase activity relative to DMSO) ([3]; 0.5 uM): 1.0889
CMV-LACZ in Myoblasts (β-galactosidase activity relative to DMSO) ([3]; 1 uM): 1.1060
CMV-LACZ in Myoblasts (β-galactosidase activity relative to DMSO) ([3]; 5 uM): 0.9088
CMV-LACZ in Myoblasts (β-galactosidase activity relative to DMSO) ([3]; 10 uM): 1.0199
CMV-LACZ in Myoblasts (β-galactosidase activity relative to DMSO) ([3]; 20 uM): 1.5063
CMV-LACZ in Myoblasts (β-galactosidase activity relative to DMSO) ([3]; 40 uM): 0.7800
Burkin Assay in Myotubes, α7 integrin LacZ reporter signal relative to DMSO ([4]; 0.5 uM): 1.07
Burkin Assay in Myotubes, α7 integrin LacZ reporter signal relative to DMSO ([4]; 1 uM): 1.062
Burkin Assay in Myotubes, α7 integrin LacZ reporter signal relative to DMSO ([4]; 5 uM): 0.9629
Burkin Assay in Myotubes, α7 integrin LacZ reporter signal relative to DMSO ([4]; 10 uM): 0.9462
Burkin Assay in Myotubes, α7 integrin LacZ reporter signal relative to DMSO ([4]; 20 uM): 0.671
Burkin Assay in Myotubes, α7 integrin LacZ reporter signal relative to DMSO ([4]; 40 uM): 0.579

Cc1ccc(NS(=O)(=O)c2ccc(-c3ccc(=O)[nH]n3)o2)c(C)c1 [MLS001116535-01]
Burkin Assay in Myoblasts, signal relative to DMSO ([1]; 0.5 uM): 1.092
Burkin Assay in Myoblasts, signal relative to DMSO ([1]; 1 uM): 1.111
Burkin Assay in Myoblasts, signal relative to DMSO ([1]; 5 uM): 0.998
Burkin Assay in Myoblasts, signal relative to DMSO ([1]; 10 uM): 0.9386
Burkin Assay in Myoblasts, signal relative to DMSO ([1]; 20 uM): 1.239
Burkin Assay in Myoblasts, signal relative to DMSO ([1]; 40 uM): 1.267
CMV-LACZ in Myotubes, signal relative to DMSO ([2]; 0.5 uM): 1.2552
CMV-LACZ in Myotubes, signal relative to DMSO ([2]; 1 uM): 0.8771
CMV-LACZ in Myotubes, signal relative to DMSO ([2]; 5 uM): 1.0648
CMV-LACZ in Myotubes, signal relative to DMSO ([2]; 10 uM): 1.2856
CMV-LACZ in Myotubes, signal relative to DMSO ([2]; 20 uM): 0.9800
CMV-LACZ in Myotubes, signal relative to DMSO ([2]; 40 uM): 1.0011
CMV-LACZ in Myoblasts (β-galactosidase activity relative to DMSO) ([3]; 0.5 uM): 1.0167
CMV-LACZ in Myoblasts (β-galactosidase activity relative to DMSO) ([3]; 1 uM): 1.1779
CMV-LACZ in Myoblasts (β-galactosidase activity relative to DMSO) ([3]; 5 uM): 1.0944
CMV-LACZ in Myoblasts (β-galactosidase activity relative to DMSO) ([3]; 10 uM): 1.0580
CMV-LACZ in Myoblasts (β-galactosidase activity relative to DMSO) ([3]; 20 uM): 1.1815
CMV-LACZ in Myoblasts (β-galactosidase activity relative to DMSO) ([3]; 40 uM): 1.1263
Burkin Assay in Myotubes, α7 integrin LacZ reporter signal relative to DMSO ([4]; 0.5 uM): 0.95
Burkin Assay in Myotubes, α7 integrin LacZ reporter signal relative to DMSO ([4]; 1 uM): 1.003
Burkin Assay in Myotubes, α7 integrin LacZ reporter signal relative to DMSO ([4]; 5 uM): 0.8929
Burkin Assay in Myotubes, α7 integrin LacZ reporter signal relative to DMSO ([4]; 10 uM): 0.8553
Burkin Assay in Myotubes, α7 integrin LacZ reporter signal relative to DMSO ([4]; 20 uM): 0.8993
Burkin Assay in Myotubes, α7 integrin LacZ reporter signal relative to DMSO ([4]; 40 uM): 0.8366

N#C/C(=C1/C(=O)Nc2ccc(Br)cc21)c1ccccn1 [MLS001013431-01]
Burkin Assay in Myoblasts, value relative to DMSO ([1]; 0.5 uM): 1.202
Burkin Assay in Myoblasts, value relative to DMSO ([1]; 1 uM): 1
Burkin Assay in Myoblasts, value relative to DMSO ([1]; 5 uM): 0.7077
Burkin Assay in Myoblasts, value relative to DMSO ([1]; 10 uM): 0.5311
Burkin Assay in Myoblasts, value relative to DMSO ([1]; 20 uM): 0.4522
Burkin Assay in Myoblasts, value relative to DMSO ([1]; 40 uM): 0.3362
CMV-LACZ in Myotubes, value relative to DMSO ([2]; 0.5 uM): 0.8638
CMV-LACZ in Myotubes, value relative to DMSO ([2]; 1 uM): 1.1257
CMV-LACZ in Myotubes, value relative to DMSO ([2]; 5 uM): 0.9388
CMV-LACZ in Myotubes, value relative to DMSO ([2]; 10 uM): 0.9162
CMV-LACZ in Myotubes, value relative to DMSO ([2]; 20 uM): 1.0682
CMV-LACZ in Myotubes, value relative to DMSO ([2]; 40 uM): 1.2059
CMV-LACZ in Myoblasts, value relative to DMSO ([3]; 0.5 uM): 0.9906
CMV-LACZ in Myoblasts, value relative to DMSO ([3]; 1 uM): 1.0640
CMV-LACZ in Myoblasts, value relative to DMSO ([3]; 5 uM): 0.8366
CMV-LACZ in Myoblasts, value relative to DMSO ([3]; 10 uM): 0.6673
CMV-LACZ in Myoblasts, value relative to DMSO ([3]; 20 uM): 0.5904
CMV-LACZ in Myoblasts, value relative to DMSO ([3]; 40 uM): 0.6670
Burkin Assay in Myotubes, value relative to DMSO ([4]; 0.5 uM): 1.238
Burkin Assay in Myotubes, value relative to DMSO ([4]; 1 uM): 1.0097
Burkin Assay in Myotubes, value relative to DMSO ([4]; 5 uM): 0.8507
Burkin Assay in Myotubes, value relative to DMSO ([4]; 10 uM): 0.8506
Burkin Assay in Myotubes, value relative to DMSO ([4]; 20 uM): 0.7376
Burkin Assay in Myotubes, value relative to DMSO ([4]; 40 uM): 0.7069
